The values that follow come from US12343368B2, “Cleome droserifolia extract and therapeutic or cosmetic use thereof” (ANPJ HEALTHCARE, priority 2019, dated 2025).

In one data set the test system is NCTC clone 929 cell line. Kind of data set: Antioxidant activity, cell viability (MTT) after hydrogen peroxide stress. Type of data set: cell-based. As to conditions: 0.56 mg/ml; for Absorbance Mean: 570 nm.
Experiment in data set [1]: as above
Format: cell-based. The settings on record: mouse, NCTC clone 929 cells, Without H2O2, read-out: Cellular viability (%).

The next data set has as its system citrated ovine plasma. Kind of data set: Coagulant activity in vitro (coagulation time, coagulometer). Format: biochemical. On the procedure:
The material used is described as follows: • The 6th international standard for unfractionated heparin (WHO 07; 328) • Activated cephaloplastin reagent Dade® Actin®—Siemens • Calcium chloride—Siemens®. • Thermo Scientific coagulometer • Citrated ovine plasma 8.7%. • Aqueous extract of lyophilized Cleome droserifolia The operating protocol is described as follows: The lyophilized extract was dissolved in ultrapure water to obtain a stock concentration of 2 mg/ml. Dilution was carried out to obtain a concentration of 0.6 mg/ml. In a first experiment, 100 μl of each of the following solutions was added to the cuvettes of the coagulometer (n=2): • Lyophilisate solution concentrated at 0.6 mg/ml, • Heparin solution at a concentration of 0.6 IU/ml • Physiological solution for the control group, • Then, 100 μl of sheep plasma was added to all the wells. • After 2 minutes, 100 μl of reactant activated with Cephalosplatin Cade® Actin was added. • After 5 minutes of incubation, 100 μl of calcium chloride solution were added and the coagulation times were recorded.

With `O=C1O[C@H]([C@@H](O)CO)C(O)=C1O` [ascorbic acid], the viability at 25 µM in the data set on NCTC clone 929 cell line (NCTC clone 929, With H2O2 (25 μM), read-out: Cellular viability (%)) came out at 74.4%. The “Absorbance Mean” value in the data set on NCTC clone 929 cell line (With H2O2 (25 μM)) amounted to 0.3564; with NCTC clone 929 cell line (Without H2O2), 0.3719. For the same compound, the viability at 24 h, 0.56 mg/ml in data set [1] is 77.6%.
For Heparin, the coagulation time in the data set on citrated ovine plasma (heparin) and in the data set on citrated ovine plasma (heparin 0.6 IU/ml) was 54.3 s in each case.
